Laboratory results as given in patent US8596358B2, “Well treatment” (Statoil ASA, priority 2004, dated 2013).
In brackets after ≈: the same amount, converted by molar mass.

How the values were obtained:
fish = assay: Fish toxicity (LC50 fish); conditions: in vivo
Excerpt: (§1) Materials for use in the invention include organosilanes, for example organosilane hydrides, organosilane alkoxides and organosilane amines. Organosilane compounds have the advantage that they are typically oil-soluble and react with water. […] Organosilanes for use in the invention preferably have a biodegradability of at least 60%. Whilst not wishing to be bound by theory, it is believed that organosilane compounds react with water and hydrolyse. The resulting chemicals then react with siliceous surfaces in the formation (e.g. the surface of silica sand), coat any sand particles, bind them in place by the formation of bridges and restrict their movement. The advantage of bifunctional organosilanes is their ability to bind two particles together.

[1] = Biodegradability according to OECD 306; conditions: as tested according to OECD 306
Excerpt: as §1

daphnia = assay: Daphnia toxicity (EC50 daphnia); conditions: in vivo
Excerpt: as §1

algae = assay: Algae toxicity (IC50 algae); assay type: cell-based
Excerpt: as §1

Structure (SMILES) | LC50 fish (fish) | biodegradability [1] | EC50 daphnia (daphnia) | IC50 algae (algae)
CCO[Si](CCCN)(OCC)OCC [DYNASYLAN AMEO, 3-amino-propyltriethoxysilane] | 934 µg/mL (≈ 4220 µM) | 67% |  | 
CCO[Si](CCCNCCC[Si](OCC)(OCC)OCC)(OCC)OCC [DYNASYLAN bis-AMEO] | > 200 µg/mL |  | > 200 µg/mL | 125 µg/mL (≈ 294 µM)
